Where a name gives a salt, the structure may show the parent alone.
Experiments:
[1] = molecular target: T1, wild type human RORγt ligand binding domain (RORγt LBD) (Homo sapiens, UniProt P51449); assay: RORγt ThermoFluor® Assay (thermal shift, binding affinity); conditions: pH 7.0, estimated from concentration response curves
T1 construct: His-tag (N); TurboTEV protease cleavage site (ENLYFQG) (N); made in house; host or cells: E. coli (pHIS1, modified pET expression vector)
T1 sequence (P51449 269-508 limits assumed): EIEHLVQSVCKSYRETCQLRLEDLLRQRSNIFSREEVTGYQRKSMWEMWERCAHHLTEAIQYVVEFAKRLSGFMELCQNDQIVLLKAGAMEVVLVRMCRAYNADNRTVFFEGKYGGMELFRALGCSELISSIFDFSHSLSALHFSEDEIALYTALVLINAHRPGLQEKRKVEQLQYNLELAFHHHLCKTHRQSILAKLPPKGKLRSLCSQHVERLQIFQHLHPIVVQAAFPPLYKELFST
Method: This approach is applicable to a wide variety of systems, and rigorous in theoretical interpretation through quantitation of equilibrium binding constants (KD).
The shift in the melting point described as a ΔTm is proportional to the concentration and affinity of the ligand.
Protein and compound solutions are dispensed into black 384-well polypropylene PCR microplates (Abgene) and overlayed with silicone oil (1 µL, Fluka, type DC 200) to prevent evaporation.
Bar-coded assay plates are robotically loaded onto a thermostatically controlled PCR-type thermal block and then heated at a typical ramp-rate of 1 °C/min for all experiments. Fluorescence was measured by continuous illumination with UV light (Hamamatsu LC6) supplied via fiber optic and filtered through a band-pass filter (380-400 nm; >6 OD cutoff). Fluorescence emission of the entire 384-well plate was detected by measuring light intensity using a CCD camera (Sensys, Roper Scientific) filtered to detect 500 ± 25 nm, resulting in simultaneous and independent readings of all 384 wells. Images were collected at each temperature, and the sum of the pixel intensity in a given area of the assay plate was recorded versus temperature. Reference wells contained RORγt without compounds, and the assay conditions were as follows: • 0.065 mg/mL RORγt • 60 µM 1,8-ANS • 100 mM Hepes, pH 7.0 • 10 mM NaCl • 2.5 mM GSH • 0.002% Tween-20
Project compounds were arranged in a pre-dosed mother plate (Greiner Bio-one) wherein compounds are serially diluted in 100% DMSO by 1:2 from a high concentration of 10 mM over 12 columns within a series (column 12 is a reference well containing DMSO, no compound). The compounds were robotically dispensed directly into assay plates (1x = 46 nL) using a Hummingbird capillary liquid handling instrument (Digilab). Following compound dispense, protein and dye in buffer was added to achieve the final assay volume of 3 µL, followed by 1 µL of silicone oil.

[2] = molecular target: T2, wild type human RORγt LBD (Homo sapiens, UniProt P51449); assay: RORγt Reporter Assay (GAL4-RORγt LBD luciferase in HEK293T cells); type: cell-based; conditions: HEK293T cells; for IC50: compounds for 24 hours, read-out: RORγt reporter Assay, IC50; for inhibition at 6 µM: HEK-293T, read-out: RORγt reporter Assay, % inhibition @ 6 µM, @ 6 µM
T2 construct: expressed in transfected cells; host or cells: HEK293T
T2 sequence (P51449 269-508 limits assumed): T1 sequence (P51449 269-508 limits assumed)
Excerpt: A reporter assay was used to test functional activity of RORγt modulatory compounds on transcriptional activation driven by the RORγt LBD. Cells used in the assay were co-transfected with two constructs. The first construct, pBIND-RORγt LBD, contained the wild type human RORγt LBD fused to the DNA binding domain of the GAL4 protein. The second construct, pGL4.31 (Promega Cat no. C935A), contained multiple GAL4 responsive DNA elements upstream of firefly luciferase. […] The mutant construct was called pBIND-RORγt-AF2.
The pBIND vector contains the GAL4 DNA Binding Domain (GAL4 DBD) and the renilla luciferase gene under control of the SV40 promoter. Renilla luciferase expression serves as a control for transfection efficiency and cell viability.
The reporter assay was performed by transiently transfecting HEK293T cells with 5 µg of pBIND-RORγt LBD or pBIND-RORγt LBD-AF2 and 5 µg pGL4.31 (Promega Cat no. C935A) using Fugene 6 (Invitrogen Cat no. E2691) at a 1:6 ratio of DNA: Fugene 6 in a T-75 flask in which cells were at least 80% confluent. Twenty four hours after bulk transfection, cells were plated into 96-well plates at 50,000 cells/well in phenol-red free DMEM containing 5% Lipid Reduced FCS and Pen/Strep. Six hours after plating, cells were treated with compounds for 24 hours. Media was removed and cells were lysed with 50 µL 1x Glo Lysis Buffer (Promega). Dual Glo Luciferase Reagent (50 µL/well) was then added and firefly luciferase luminescence was read on an Envision after a ten minute incubation. Finally, Stop and Glo reagent (50 µL/well) was added and renilla luciferase luminescence was read on an Envision instrument after a ten minute incubation. To calculate the effect of compounds on RORγt activity, the ratio of firefly to renilla luciferase was determined and plotted against compound concentration. Agonist compounds increase RORγt-driven luciferase expression, and antagonist or inverse agonist compounds decrease luciferase expression.

For Cn1cncc1C(O)(c1ccc2nc(C#N)c(-c3ccccc3)c(C#N)c2c1)c1ccccn1 (single isomer, unassigned) [Example 18b, 6-(Hydroxy(1-methyl-1H-imidazol-5-yl)(pyridin-2-yl)methyl)-3-phenylquinoline-2,4-dicarbonitrile], the Kd [1] was 14000 nM, the “RORγt reporter Assay, % inhibition @ 6 µM” value [2] was 40% and the IC50 [2] was greater than 6000 nM.
With Cn1cncc1C(O)(c1ccc2nc(C#N)c(-c3ccccc3)c(C#N)c2c1)c1ccccn1 (single isomer, unassigned) [Example 18c, 6-(Hydroxy(1-methyl-1H-imidazol-5-yl)(pyridin-2-yl)methyl)-3-phenylquinoline-2,4-dicarbonitrile] the Kd [1] was 330 nM, the “RORγt reporter Assay, % inhibition @ 6 µM” value [2] was 95% and the IC50 [2] was 850 nM.
With COc1nc2c(C)cc(C(O)(c3ccc(C(F)(F)F)nc3)c3cncn3C)cc2c(C#N)c1-c1ccc(OC(F)(F)F)cc1 (single isomer, unassigned) [Example 19c, 6-(Hydroxy(1-methyl-1H-imidazol-5-yl)(6-(trifluoromethyl)pyridin-3-yl)methyl)-2-methoxy-8-methyl-3-(4-(trifluoromethoxy)phenyl)quinoline-4-carbonitrile] the Kd [1] was 17 nM, the “RORγt reporter Assay, % inhibition @ 6 µM” value [2] was 35% and the IC50 [2] was greater than 6000 nM.
With CC(=O)N1CCC(C(O)(c2ccccc2)c2cc(C)c3nc(C#N)c(-c4ccccc4)c(C#N)c3c2)CC1 (single isomer, unassigned) [Example 21b, 6-((1-Acetylpiperidin-4-yl)(hydroxy)(phenyl)methyl)-8-methyl-3-phenylquinoline-2,4-dicarbonitrile] the Kd [1] was 1300 nM, the IC50 [2] was 1600 nM and the inhibition at 6 µM [2] was 87%.
In the case of Cc1cc(C(O)(c2ccc(Cl)cc2)c2cncn2C)cc2c(C#N)c(-c3ccccc3)c(C#N)nc12 (single isomer, unassigned) [Example 23b, 6-((4-Chlorophenyl)(hydroxy)(1-methyl-1H-imidazol-5-yl)methyl)-8-methyl-3-phenylquinoline-2,4-dicarbonitrile], the Kd [1] is reported as 15000 nM, the “RORγt reporter Assay, % inhibition @ 6 µM” value [2] is reported as 60% and the IC50 [2] is reported as roughly 4000 nM.
Work on Cc1cc(C(O)(c2ccc(C(F)(F)F)nc2)c2cncn2C)cc2c(C#N)c(-c3ccccc3)c(C#N)nc12 (single isomer, unassigned) [Example 25b, 6-(Hydroxy(1-methyl-1H-imidazol-5-yl)(6-(trifluoromethyl)pyridin-3-yl)methyl)-8-methyl-3-phenylquinoline-2,4-dicarbonitrile] yielded a Kd [1] of 3500 nM, an IC50 [2] of roughly 2000 nM and an inhibition at 6 µM [2] of 87%.
Compound CC(=O)N1CCC(C(O)(c2ccc(C(F)(F)F)nc2)c2cc(C)c3nc(C#N)c(-c4ccccc4)c(C#N)c3c2)CC1 (single isomer, unassigned) [Example 27b, 6-((1-Acetylpiperidin-4-yl)(hydroxy)(6-(trifluoromethyl)pyridin-3-yl)methyl)-8-methyl-3-phenylquinoline-2,4-dicarbonitrile] has a Kd [1] of 15000 nM, an IC50 [2] of roughly 4000 nM and an inhibition at 6 µM [2] of 80%.
In the case of CC(=O)N1CCC(C(O)(c2ccc(C(F)(F)F)nc2)c2cc(C)c3nc(C#N)c(-c4ccccc4)c(C#N)c3c2)CC1 (single isomer, unassigned) [Example 27c, 6-((1-Acetylpiperidin-4-yl)(hydroxy)(6-(trifluoromethyl)pyridin-3-yl)methyl)-8-methyl-3-phenylquinoline-2,4-dicarbonitrile], the Kd [1] is reported as 820 nM, the “RORγt reporter Assay, % inhibition @ 6 µM” value [2] is reported as 96% and the IC50 [2] is reported as 2100 nM.
Work on COc1c(-c2ccccc2)c(C(F)(F)F)nc2ccc(C(O)(c3ccccn3)c3cncn3C)cc12 (single isomer, unassigned) [Example 32b, (4-Methoxy-3-phenyl-2-(trifluoromethyl)quinolin-6-yl)(1-methyl-1H-imidazol-5-yl)(pyridin-2-yl)methanol] yielded a Kd [1] of 770 nM, an IC50 [2] of 1200 nM and an inhibition at 6 µM [2] of 92%.
COc1c(-c2ccccc2)c(C(F)(F)F)nc2ccc(C(O)(c3ccc(Cl)cc3)c3cncn3C)cc12 (single isomer, unassigned) [Example 33b, (4-Chlorophenyl)(4-methoxy-3-phenyl-2-(trifluoromethyl)quinolin-6-yl)(1-methyl-1H-imidazol-5-yl)methanol] was tested, and the Kd [1] was 13000 nM, the “RORγt reporter Assay, % inhibition @ 6 µM” value [2] was 64% and the IC50 [2] was roughly 4000 nM.
CC(=O)N1CCC(C(O)(c2ccc3nc(C(F)(F)F)c(-c4ccccc4)c(Cl)c3c2)c2cncn2C)CC1 (single isomer, unassigned) [Example 34b, 1-(4-((4-Chloro-3-phenyl-2-(trifluoromethyl)quinolin-6-yl)(hydroxy)(1-methyl-1H-imidazol-5-yl)methyl)piperidin-1-yl)ethanone] was tested, and the Kd [1] was 450 nM, the IC50 [2] was 1000 nM and the inhibition at 6 µM [2] was 90%.
COc1c(-c2ccccc2)c(Cl)nc2ccc(C(O)(c3cnnn3C)c3cnc(C)n3C)cc12 (single isomer, unassigned) [Example 40b, (2-Chloro-4-metboxy-3-phenylquinolin-6-yl)(1,2-dimethyl-1H-imidazol-5-yl)(1-methyl-1H-1,2,3-triazol-5-yl)methanol] showed an inhibition at 6 µM [2] of 97%.
Cc1nc(C)c(C(O)(c2ccc3nc(C#N)c(-c4ccccc4)c(C#N)c3c2)c2cnnn2C)s1 (single isomer, unassigned) [Example 47b, 6-((2,4-Dimethylthiazol-5-yl)(hydroxy)(1-methyl-1H-1,2,3-triazol-5-yl)methyl)-3-phenylquinoline-2,4-dicarbonitrile] was tested, and the Kd [1] was 930 nM, the IC50 [2] was roughly 2000 nM and the inhibition at 6 µM [2] was 80%.
In the case of COc1nc2ccc(C(O)(c3ncccn3)c3cncn3C)cc2c(Cl)c1-c1ccccc1 (single isomer, unassigned) [Example 60b, (4-Chloro-2-methoxy-3-phenylquinolin-6-yl)(1-methyl-1H-imidazol-5-yl)pyrimidin-2-ylmethanol], the Kd [1] is reported as 900 nM, the IC50 [2] is reported as roughly 2000 nM and the inhibition at 6 µM [2] is reported as 87%.
COCCN(C)c1nc2ccc(C(O)(c3ccc(C(F)(F)F)nc3)c3cncn3C)cc2c(Cl)c1-c1ccccc1 (centres unmarked) [Example 53, {4-Chloro-2-[(2-methoxyethyl)(methyl)amino]-3-phenylquinolin-6-yl}(1-methyl-1H-imidazol-5-yl)[6-(trifluoromethyl)pyridin-3-yl]methanol] gave a Kd [1] of 7.2 nM.
CON(C)c1nc2ccc(C(O)(c3ccc(Cl)cc3)c3cncn3C)cc2c(N(C)OC)c1-c1ccccc1 (centres unmarked) [Example 59, {2,4-Bis[methoxy(methyl)amino]-3-phenylquinolin-6-yl}(4-chlorophenyl)(1-methyl-1H-imidazol-5-yl)methanol] was tested, and the inhibition at 6 µM [2] was 98%.
For CC(C)Oc1nc2ccc(C(O)(c3cccnc3)c3cccc(Cl)c3)cc2cc1-c1ccccc1 (centres unmarked) [Example 79, (3-Chlorophenyl)(2-isopropoxy-3-phenylquinolin-6-yl)(pyridin-3-yl)methanol•TFA], the Kd [1] was 17000 nM.
Work on CCOc1nc2ccc(C(O)(c3cccnc3)c3cccc(Cl)c3)cc2c(OCC)c1-c1ccccc1 (centres unmarked) [Example 81, (3-Chlorophenyl)(2,4-diethoxy-3-phenylquinolin-6-yl)(pyridin-3-yl)methanol•TFA] yielded a Kd [1] of 14000 nM.
